# Experimental data taken from ChEMBL document CHEMBL1201862, “PubChem BioAssay data set” (2004).
# Calls of active or inactive are those of the source.
# What was measured:
# [1] = target: T1, Nucleotide-binding oligomerization domain-containing protein 1 (Homo sapiens, UniProt Q9Y239); assay: blockers of NOD1 pathway activity – revised, SAR follow-up (AID 2333); assay type: functional
# T1 sequence (Q9Y239 whole entry): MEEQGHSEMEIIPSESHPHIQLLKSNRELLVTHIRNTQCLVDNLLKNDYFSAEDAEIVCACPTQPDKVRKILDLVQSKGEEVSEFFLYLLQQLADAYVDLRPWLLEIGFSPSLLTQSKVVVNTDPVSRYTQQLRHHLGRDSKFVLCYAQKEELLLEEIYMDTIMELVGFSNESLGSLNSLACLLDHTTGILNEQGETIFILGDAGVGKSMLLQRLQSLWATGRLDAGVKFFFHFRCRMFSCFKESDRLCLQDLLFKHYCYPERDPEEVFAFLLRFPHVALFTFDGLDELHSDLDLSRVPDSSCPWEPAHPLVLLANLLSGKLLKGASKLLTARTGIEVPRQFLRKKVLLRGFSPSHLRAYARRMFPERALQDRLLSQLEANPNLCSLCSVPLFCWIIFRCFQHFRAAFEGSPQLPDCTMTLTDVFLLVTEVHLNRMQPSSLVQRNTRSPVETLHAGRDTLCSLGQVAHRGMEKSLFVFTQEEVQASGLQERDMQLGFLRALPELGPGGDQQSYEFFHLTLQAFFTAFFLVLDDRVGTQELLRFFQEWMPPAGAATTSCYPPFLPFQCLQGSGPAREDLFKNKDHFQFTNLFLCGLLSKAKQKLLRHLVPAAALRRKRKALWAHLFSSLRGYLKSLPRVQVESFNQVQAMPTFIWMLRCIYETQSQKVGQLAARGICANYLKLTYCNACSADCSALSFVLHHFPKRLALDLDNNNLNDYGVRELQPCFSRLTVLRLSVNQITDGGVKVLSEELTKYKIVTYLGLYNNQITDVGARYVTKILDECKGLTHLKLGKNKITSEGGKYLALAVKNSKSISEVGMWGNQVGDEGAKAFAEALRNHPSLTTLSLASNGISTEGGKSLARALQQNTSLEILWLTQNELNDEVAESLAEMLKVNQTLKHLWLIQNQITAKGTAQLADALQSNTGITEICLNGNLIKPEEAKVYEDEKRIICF
# [2] = target: T2, Nucleotide-binding oligomerization domain-containing protein 2 (Homo sapiens, UniProt Q9HC29); assay: inhibition of NOD2 signaling – set 2, SAR follow-up (AID 2475); assay type: functional
# [3] = target: T3, Tumor necrosis factor (Homo sapiens, UniProt P01375); assay: analog potency on TNFa NF-kB signaling – cell-based, revised, SAR follow-up (AID 2337); assay type: functional
# [4] = system: HEK293; assay: cells; assay type: functional, cell-based; conditions: Homo sapiens
# [5] = system: HEK293; assay: cells; assay type: functional, cell-based; conditions: Homo sapiens; remark: listed apart in the source
# [6] = target: T2, Nucleotide-binding oligomerization domain-containing protein 2; assay: inhibition of NOD2-driven NF-kB reporter – cell-based, luminescence, uHTS, HEK293 (AID 1566); assay type: functional
# [7] = system: HEK293; assay: cells; assay type: functional, cell-based; conditions: Homo sapiens; remark: listed apart in the source
# [8] = system: HEK293; assay: SAR analysis of compounds that are cytotoxic to HEK293 - Set 2. [Related pubchem assays (depositor defined):AID1575, AID1578, AID1849, AID2001, AID2333, AID2334, AID2335, AID2337, AID2800]; assay type: functional, cell-based; conditions: Homo sapiens
# [9] = system: HEK293; assay: cells; conditions: Homo sapiens
# [10] = system: HEK293; assay: inhibition of NOD1-driven NF-kB reporter – cell-based, luminescence, uHTS, primary screen (AID 1578); assay type: functional; conditions: Homo sapiens
# [11] = system: HEK293; assay: NOD2 signaling inhibitors in MDP-stimulated cells, cell-based, uHTS, luminescence (AID 2001); assay type: functional; conditions: Homo sapiens
# [12] = target: T3, Tumor necrosis factor; assay: analog potency on TNFa NF-kB signaling – cell-based, set 2, SAR follow-up (AID 2483); assay type: functional
# [13] = target: T2, Nucleotide-binding oligomerization domain-containing protein 2; assay: PubChem AID 2334; assay type: functional
# [14] = target: T1, Nucleotide-binding oligomerization domain-containing protein 1; assay: SAR analysis of compounds that inhibit NOD1 - Set 2. [Related pubchem assays (depositor defined):AID1566, AID1575, AID1578, AID1849, AID1852, AID2333, AID2335, AID2798]; assay type: functional
# [15] = target: Ion channel NompC (Danio rerio, UniProt Q7T1G6); assay: Dose response cell-based high-throughput screening assay for agonists of the transient receptor potential channel N1 (TRPN1). [Related pubchem assays (depositor defined):AID1424, AID1448]; assay type: functional
# [16] = target: Troponin, cardiac muscle (Homo sapiens, UniProt P19429+P45379+P63316); assay: Fluorescence-based biochemical high throughput dose response assay for activators of the calcium sensitivity of cardiac Regulated Thin Filaments (RTF). [Related pubchem assays (depositor defined):AID493008, AID493018, AID504382, AID504383]; assay type: protein-complex assay
# [17] = target: T4, Mucolipin-3 (Homo sapiens, UniProt Q8TDD5); assay: Fluorescence counterscreen assay for […] agonists: dose response cell-based high-throughput screening assay to identify agonists of the transient receptor potential channel ML3 (TRPML3). [Related pubchem assays: 1424, 1448 ]; assay type: functional
# T4 sequence (Q8TDD5 whole entry): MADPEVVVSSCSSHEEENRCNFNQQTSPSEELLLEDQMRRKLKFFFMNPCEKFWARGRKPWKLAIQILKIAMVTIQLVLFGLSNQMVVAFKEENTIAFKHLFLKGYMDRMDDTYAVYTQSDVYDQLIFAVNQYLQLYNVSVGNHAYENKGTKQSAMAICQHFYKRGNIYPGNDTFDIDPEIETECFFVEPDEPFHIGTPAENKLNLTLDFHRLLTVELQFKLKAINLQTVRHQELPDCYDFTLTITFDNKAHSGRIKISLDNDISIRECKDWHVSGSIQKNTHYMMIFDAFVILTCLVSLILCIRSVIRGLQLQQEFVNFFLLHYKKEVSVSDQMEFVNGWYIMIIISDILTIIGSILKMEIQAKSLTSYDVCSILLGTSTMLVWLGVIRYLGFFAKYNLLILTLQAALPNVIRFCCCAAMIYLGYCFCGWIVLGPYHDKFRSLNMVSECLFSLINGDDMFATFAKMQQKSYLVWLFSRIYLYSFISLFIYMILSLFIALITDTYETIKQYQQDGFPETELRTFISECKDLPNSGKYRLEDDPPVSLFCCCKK
# [18] = target: Eukaryotic translation initiation factor 4E (Mus musculus, UniProt P63073); assay: blockers of eIF4G binding by eIF4E – biochemical, TR-FRET, dose response (AID 855); assay type: functional;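 further: potency for disrupting eIF4E binding to eIF4GI seen as loss of FRET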
# [19] = target: T5, Rac GTPase-activating protein 1 (Homo sapiens, UniProt Q9H0H5); assay: blockers of MgcRacGAP-driven Rac1 GTP hydrolysis – biochemical, ADP Hunter fluorescence, primary and confirmatory, confirmation (AID 624330); assay type: functional
# T5 sequence (Q9H0H5 whole entry): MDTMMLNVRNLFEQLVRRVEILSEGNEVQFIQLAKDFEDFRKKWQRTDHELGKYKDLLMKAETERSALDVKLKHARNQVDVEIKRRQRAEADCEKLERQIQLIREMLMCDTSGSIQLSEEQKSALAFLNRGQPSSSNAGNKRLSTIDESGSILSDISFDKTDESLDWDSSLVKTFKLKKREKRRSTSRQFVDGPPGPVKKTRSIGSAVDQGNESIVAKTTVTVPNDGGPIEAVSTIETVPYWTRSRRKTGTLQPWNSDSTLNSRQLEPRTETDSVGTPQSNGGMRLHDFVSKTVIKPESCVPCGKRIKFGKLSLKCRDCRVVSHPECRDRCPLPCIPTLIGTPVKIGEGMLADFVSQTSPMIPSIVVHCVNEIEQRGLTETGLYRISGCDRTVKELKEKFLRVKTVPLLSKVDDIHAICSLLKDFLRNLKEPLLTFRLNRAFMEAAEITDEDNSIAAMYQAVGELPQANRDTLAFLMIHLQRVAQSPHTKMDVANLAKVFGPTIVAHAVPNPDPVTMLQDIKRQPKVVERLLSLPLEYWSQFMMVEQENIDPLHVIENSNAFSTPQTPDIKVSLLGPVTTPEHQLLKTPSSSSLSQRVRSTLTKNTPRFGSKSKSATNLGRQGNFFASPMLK
# [20] = viability loss in HeLa cells – cytotoxicity control for MgcRacGAP inhibitor project, dose response (AID 624300); assay type: functional
# [21] = target: T6, Sphingosine 1-phosphate receptor 4 (Homo sapiens, UniProt O95977); assay: Late-stage fluorescence dose response cell-based assay to identify agonists of the Sphingosine 1-Phosphate Receptor 4 (S1P4): purchased compounds EC50. [Related pubchem assays (depositor defined):AID1509, AID1523, AID1563, AID1686, AID1701, AID1801]; assay type: functional
# T6 sequence (O95977 whole entry): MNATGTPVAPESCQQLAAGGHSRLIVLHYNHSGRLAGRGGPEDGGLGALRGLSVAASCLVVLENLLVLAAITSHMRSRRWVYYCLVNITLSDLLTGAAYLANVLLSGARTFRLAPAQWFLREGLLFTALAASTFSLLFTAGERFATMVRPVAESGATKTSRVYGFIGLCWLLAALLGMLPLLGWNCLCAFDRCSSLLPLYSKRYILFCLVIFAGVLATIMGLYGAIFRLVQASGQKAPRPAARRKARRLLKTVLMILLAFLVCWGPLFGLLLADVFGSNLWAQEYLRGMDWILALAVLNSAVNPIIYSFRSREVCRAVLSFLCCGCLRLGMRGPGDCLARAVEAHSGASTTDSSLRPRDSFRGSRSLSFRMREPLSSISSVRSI
# [22] = target: DNA dC->dU-editing enzyme APOBEC-3A (Homo sapiens, UniProt P31941); assay: Dose Response confirmation of small molecule APOBEC3A DNA Deaminase Inhibitors via a fluorescence-based single-stranded DNA deaminase assay. [Related pubchem assays (depositor defined):AID493011, AID493024]; assay type: functional
# [23] = target: DNA dC->dU-editing enzyme APOBEC-3G (Homo sapiens, UniProt Q9HC16); assay type: functional;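 further: Dose-response counterscreen measuring inhibition of APOBEC3G DNA deaminase activity, run while confirming APOBEC3A inhibitors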
structure (smiles),measurement,setting,value
Cc1cc(SCC(=O)OC/C(O)=C(\C#N)c2nc3ccccc3[nH]2)c(C)cc1Br,IC50,[1],> 20 µM (inactive)
same,IC50,[2],5.19 µM (active)
same,IC50,[3],> 20 µM (inactive)
same,IC50,[4],> 20 µM (inactive)
same,IC50,[5],18.9 µM (active)
same,EC50,[6],> 20 µM (inactive)
same,IC50,[7],> 20 µM (inactive)
same,IC50,[8],> 20 µM (inactive)
same,IC50,[9],> 20 µM (inactive)
same,EC50,[10],> 20 µM (inactive)
same,IC50,[11],5.41 µM (inactive)
same,IC50,[12],> 20 µM (inactive)
same,IC50,[13],> 20 µM (inactive)
same,IC50,[14],5.95 µM (active)
COc1cc(/C=C(\C#N)c2nc3ccccc3[nH]2)cc(OC)c1O,EC50,[15],3.62 µM (active)
same,EC50,[16],4.89 µM (active)
same,EC50,[17],8.88 µM (active)
same,IC50,[18],50 µM (inactive)
same,IC50,[19],20 µM (active)
same,CC50,[20],100 µM (active)
Cc1ccc(OCc2ccc(Cl)c(Cl)c2)c([N+](=O)[O-])n1,EC50,[21],> 50 µM (inactive)
O=C(CNC(=O)OCc1ccccc1)Nc1ccc(F)cc1,IC50,[22],3.04 µM (active)
same,IC50,[23],5.01 µM (active)
